# Assays:
# Format in all cases: cell-based
# [1] = tested on: nerve cells derived from a rat fetus (cerebral cortex); assay: Survival of cultured isolated nerve cells (cerebral cortex); settings: serum-free DF medium, 3 days culture, 1 and 10 μM beraprost sodium, student t-test vs control
# Excerpt: (§1) Effect of improving survival rate of cultured isolated nerve cells:
# (§2) The protective effect of beraprost sodium on nerve cells was examined by using nerve cells derived from a rat fetus. The cerebral cortex and hippocampus were obtained from the brain of a rat fetus of 17 days age, and isolated nerve cells were obtained therefrom by trypsin and pipetting treatment. The thus-obtained cells were inoculated into a 48-well culture plate coated with polylysine at a cell concentration of 5×10^3 cells/cm^2; followed by culture in a DF medium containing no serum at 37° C. for 3 days. After completion of culture, the cells were fixed by formalin, and the number of cells having axons was measured under a microscope. Beraprost sodium was added in an amount of each of 1, 10 and 100 μM during culture.
# (§3) The results are shown in FIG. 1 (In the figure, * and ** represent student t-test results. *: p<0.05 vs control. **: p<0.01 vs control. This applies to the description below). The nerve cells gradually died and fell under the conditions in this example, beraprost sodium prevented falling of the nerve cells, and increased the number of survival cells depending upon the concentration.
# [2] = tested on: nerve cells derived from a rat fetus (hippocampus); assay: Survival of cultured isolated nerve cells (hippocampus); settings: serum-free DF medium, 3 days culture, 10 μM beraprost sodium, student t-test vs control
# Excerpt: as §1, §2, §3
# Human glioma cells = assay: Human glioma cell disorder due to peroxide (TBH)
# Experimental: Human glioma cells were separated from a patient of glioma (person), and then subjected to subculture in a 10% FCS-D-MEM medium (a Dulbecco's MEM medium (Nissui) containing 10% fetal calf serum). The cells were dispersed into single cells by trypsin-EDTA treatment, and then a 10% FCS-D-MEM medium was added to recover the cells, followed by centrifugation at 1200 rpm for 5 minutes. After centrifugation, the cells were prepared to 1×10^6 cells/ml by a HEPES buffer (Hanks' solution (Nissui) containing 15 mM HEPES, pH 7.4), and beraprost sodium (0.1 to 30 μM) was added to the cell solution, followed by incubation at 37° C. for 30 minutes. Then, […] of TBH (tertiary butyl hydroperoxide, Funakoshi) as a peroxide was added to the cell solution, followed by further incubation at 37° C. for 30 minutes. After reaction was stopped under ice cooling, some of the cells are collected, and divided into living cells and dead cells by trypan blue staining, followed by counting to determine the survival rate of the cells. The residual cells were centrifuged at 2000 rpm for 5 minutes, and then the amount of thiobarbituric acid reaction substance (TBARS amount) was measured according to the known method (Ohkawa, H., Ohnishi, N. and Yagi, K. Anal. Biochem., 95, 351-358 (1979)) and considered as an index of peroxidation of cell membrane lipid. […]
substance,measurement,setting,value
beraprost sodium,number of survival cells (cells having axons),[1],increase was significant
same,number of survival cells (cells having axons),[2],increase was significant
same,decrease in the survival rate of cells by TBH treatment (trypan blue staining),"Human glioma cells; 0.1 μM or more of beraprost sodium, 30 min pre-incubation, then 800 μm TBH for 30 min at 37° C.",significantly (p<0.01) suppressed
same,TBARS amount as an index of peroxidation of cell membrane lipid (increase by TBH treatment),"Human glioma cells; beraprost sodium 0.1 to 30 μM, TBH-treated cells",did not affect such an increase
